The text below walks through data of patent publication US20180318381A1, “Methods of Treatment of Rhabdomyolysis” (University of Pittsburgh - Of the Commonwealth System of …, priority 2015, published 2018).

For experiment [1], the system named is amyotrophic lateral sclerosis mouse model. Conditions: ALS mouse model; cited from earlier work.
The subject of experiment [2] is mice treated with azide. Conditions: supplementation at the same time as azide; cited from earlier work.
Experiment [3] relates to Friedrich's ataxia cells. Conditions: in response to oxidative stress; cited from earlier work.
Experiment [4] relates to patients with LC-FAODs.

Regarding `CCNC(=O)[C@]12CCC(C)(C)C[C@H]1[C@H]1C(=O)C=C3[C@@]4(C)C=C(C#N)C(=O)C(C)(C)[C@@H]4CC[C@@]3(C)[C@]1(C)CC2` [CDDO-EA, 2-cyano-3,12-dioxooleana-1,9-dien-28-oic acid-ethyl amide], in experiment [1], the survival entry is recorded as “improve survival”.

Consider `CC(=O)OC[C@H]1O[C@@H](n2ccc(=O)[nH]c2=O)[C@H](OC(C)=O)[C@@H]1OC(C)=O` [PN401, uridine triacetate], for which, in experiment [2], the “survival of the animals” value was “improved survival”.

Turning to `CC1(C)CC[C@]2(NC(=O)C(C)(F)F)CC[C@]3(C)[C@H](C(=O)C=C4[C@@]5(C)C=C(C#N)C(=O)C(C)(C)[C@@H]5CC[C@]43C)[C@@H]2C1` [RTA408, N-(2-cyano-3,12-dioxo-28-noroleana-1,9(11)-dien-17-yl)-2,2-difluoro-propanamide], the antioxidant gene expression entry in experiment [3] was “improve antioxidant gene expression”.

As for `CCCCCCC(=O)OCC(COC(=O)CCCCCC)OC(=O)CCCCCC` [triheptanoin, 1,3-di(heptanoyloxy)propan-2-yl heptanoate], in experiment [4] (7 subjects with peak CK before and after treatment, P=0.1279), the “decrease in peak CK levels (trend)” value turned out to be 68%. Moreover, the “decline in hypoglycemia event rate per year” value in experiment [4] (9 subjects with hypoglycemia problems, P=0.0091) is recorded as 96%. Further, in experiment [4] (LC-FAOD patients, FIG. 14), the hospitalizations entry is reported as “reduced hospitalizations”, the hypoglycemic hospitalizations entry is listed as “nearly eliminated”, the “number of days of hospital stay if hospitalized” value is “reduced” and the “number of hospitalization days with rhabdomyolysis” value is “decreased”. Besides, the “number of hospitalizations with rhabdomyolysis” value in experiment [4] (LC-FAOD patients, FIG. 14) is given as “did not reduce”. Moreover, the “peak CK levels” value in experiment [4] (after treatment (from 85,855 before), 7 subjects) was 27,597 units. In addition, in experiment [4] (after treatment (vs 0.92 before), n=9), the “hypoglycemia event rate per year” value was determined as 0.04 per year. This compound also displayed a hypoglycemia-related hospitalization days/year in experiment [4] (after treatment (vs 8.42 before), n=9, P=0.0257) of 0.18 days/year. In experiment [4] (after triheptanoin initiation (vs 1.94 before), n=16), this compound displayed a hospitalization event rate of 1.26. Besides, in experiment [4] (after triheptanoin initiation (vs 5.94 before), n=9, P=0.1224), the rhabdomyolysis hospitalization days/year worked out at 2.36 days/year. This compound had a mean hospitalization days/year in experiment [4] (after triheptanoin initiation (vs 17.55 before), n=15) of 5.76 days/year. The hypoglycemia in patients result in experiment [4] (patients having long chain FAODs) is recorded as “essentially eliminates hypoglycemia”. Besides, in experiment [4] (patients having long chain FAODs on triheptanoin), the episodes of rhabdomyolysis result is reported as “continue to have episodes of rhabdomyolysis”. In addition, the “decrease in mean hospitalization days/year” value in experiment [4] (period after triheptanoin initiation vs before, n=15, P=0.0242) was found to be 67%.
